18 compounds from patent publication US11166959B2, “Isofuranone compounds useful as HPK1 inhibitors” (BRISTOL-MYERS SQUIBB COMPANY, priority 2017, dated 2021) can be followed below.

One assay addresses T1, HPK1 (Homo sapiens, UniProt Q92918).
T1 construct: purchased SignalChem M23-11G
T1 sequence (Q92918 1-346 limits assumed): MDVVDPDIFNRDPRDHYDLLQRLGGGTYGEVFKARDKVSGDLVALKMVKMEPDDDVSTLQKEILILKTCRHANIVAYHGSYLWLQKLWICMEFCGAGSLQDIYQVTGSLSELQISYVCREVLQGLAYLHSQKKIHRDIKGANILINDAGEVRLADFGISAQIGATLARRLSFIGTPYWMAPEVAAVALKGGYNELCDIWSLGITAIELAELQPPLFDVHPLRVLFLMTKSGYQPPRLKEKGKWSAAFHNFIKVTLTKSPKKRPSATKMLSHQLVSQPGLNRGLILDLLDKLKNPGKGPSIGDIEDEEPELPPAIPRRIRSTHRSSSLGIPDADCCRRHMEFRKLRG
The experiment in a line: HPK1 Inhibition Assay (kinase reaction, Caliper capillary electrophoresis). The note with it: for IRAK4/HPK1 Ratio: ratio of the IRAK4 IC50 value to the HPK1 IC50 value. In kind it is biochemical. In short, it runs like this: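 Kinase reactions ran 3 h and were stopped with 1 mM EDTA, with enzyme level and time set for at most 20-30% peptide substrate conversion. Phosphorylated and unphosphorylated peptide were separated by capillary electrophoresis to measure conversion. IC50 derived from 11 compound concentrations.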

For a further assay, the target named is T2, IRAK4 (Homo sapiens, UniProt Q9NWZ3).
T2 construct: 1 nM IRAK4 (160-460); purchased SignalChem M24016
T2 sequence (Q9NWZ3 160-460): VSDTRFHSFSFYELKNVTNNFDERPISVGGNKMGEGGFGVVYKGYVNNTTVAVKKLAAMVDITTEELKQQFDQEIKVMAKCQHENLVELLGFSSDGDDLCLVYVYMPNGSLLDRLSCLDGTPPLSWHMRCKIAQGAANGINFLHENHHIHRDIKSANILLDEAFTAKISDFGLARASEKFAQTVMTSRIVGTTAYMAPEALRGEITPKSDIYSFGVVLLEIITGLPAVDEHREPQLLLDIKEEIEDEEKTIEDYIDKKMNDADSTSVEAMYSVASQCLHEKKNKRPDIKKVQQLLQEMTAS
The experiment in a line: IRAK4 Inhibition Assay (kinase reaction, Caliper capillary electrophoresis). In kind it is biochemical. To be noted: 500 μM ATP, 11 concentrations.

Setting [1] is: 0.625 nM HPK1, 22 μM ATP, 11 concentrations, read-out: HPK1 IC50.

Where two headings read alike, the source gives them in different places.

Consider `CC1(C)OC(=O)c2ccc(Nc3ncc(-c4nnc(-c5ccccn5)o4)c(N[C@H](CO)c4ccccc4)n3)cc21` [Example 66, 5-[(4-{[(1S)-2-hydroxy-1-phenylethyl]amino}-5-[5-(pyridin-2-yl)-1,3,4-oxadiazol-2-yl]pyrimidin-2-yl)amino]-3,3-dimethyl-1,3-dihydro-2-benzofuran-1-one], for which the IC50 (as a rule, the concentration at which inhibition is half-maximal) was in the range of 50 to 250 nM on HPK1 (setting [1]) and 250 to 1000 nM at IRAK4. Moreover, the “IRAK4/HPK1 Ratio” value at HPK1 was “B (B=10 to 50)”.

Turning to `CC1(C)OC(=O)c2ccc(Nc3ncc(-c4nnc(-c5cccnn5)o4)c(N[C@H](CO)c4ccccc4)n3)cc21` [Example 67, 5-[(4-{[(1S)-2-hydroxy-1-phenylethyl]amino}-5-[5-(pyridazin-3-yl)-1,3,4-oxadiazol-2-yl]pyrimidin-2-yl)amino]-3,3-dimethyl-1,3-dihydro-2-benzofuran-1-one], the figures for the IC50 at HPK1 (setting [1]) and against IRAK4 were below 50 nM and 50 to 250 nM, respectively. Also, the “IRAK4/HPK1 Ratio” value on HPK1 is given as “B (B=10 to 50)”.

As for `CC1(C)OC(=O)c2ccc(Nc3ncc(-c4nnc(C5(C(F)(F)F)CC5)o4)c(N[C@H](CO)c4ccccc4)n3)cc21` [Example 68, 5-[(4-{[(1S)-2-hydroxy-1-phenylethyl]amino}-5-{5-[1-(trifluoromethyl)cyclopropyl]-1,3,4-oxadiazol-2-yl}pyrimidin-2-yl)amino]-3,3-dimethyl-1,3-dihydro-2-benzofuran-1-one], the IC50 on HPK1 (setting [1]) was below 50 nM; at IRAK4, 250 to 1000 nM. The “IRAK4/HPK1 Ratio” value on HPK1 is reported as “B (B=10 to 50)”.

Regarding `CC1(C)OC(=O)c2ccc(Nc3ncc(-c4nnc(C5CCS(=O)(=O)CC5)o4)c(N[C@H](CO)c4ccccc4)n3)cc21` [Example 69, (S)-5-((5-(5-(1,1-dioxidotetrahydro-2H-thiopyran-4-yl)-1,3,4-oxadiazol-2-yl)-4-((2-hydroxy-1-phenylethyl)amino)pyrimidin-2-yl)amino)-3,3-dimethylisobenzofuran-1(3H)-one], the results for the IC50 on HPK1 (setting [1]) and against IRAK4 were below 50 nM and 50 to 250 nM, respectively. Further, the “IRAK4/HPK1 Ratio” value at HPK1 was “B (B=10 to 50)”.

On to `CC1(C)OC(=O)c2ccc(Nc3ncc(-c4nnc(C5(OC(=O)N6CC(F)(F)C6)CC5)o4)c(N[C@H](CO)c4ccccc4)n3)cc21` [Example 70, 1-(5-{2-[(3,3-dimethyl-1-oxo-1,3-dihydro-2-benzofuran-5-yl)amino]-4-{[(1S)-2-hydroxy-1-phenylethyl]amino}pyrimidin-5-yl}-1,3,4-oxadiazol-2-yl)cyclopropyl 3,3-difluoroazetidine-1-carboxylate], for which the IC50 on HPK1 (setting [1]) is 50 to 250 nM; at IRAK4, 250 to 1000 nM. Besides, the “IRAK4/HPK1 Ratio” value at HPK1 is given as “B (B=10 to 50)”.

Turning to `CCOC(=O)c1cnc(Nc2ccc3c(c2)C(C)(C)OC3=O)nc1NCc1ccccc1C(C)(C)O` [Example 71, Ethyl 2-[(3,3-dimethyl-1-oxo-1,3-dihydro-2-benzofuran-5-yl)amino]-4-({[2-(2-hydroxypropan-2-yl)phenyl]methyl}amino)pyrimidine-5-carboxylate], the IC50 was below 50 nM at HPK1 (setting [1]) and 250 to 1000 nM on IRAK4. Further, the “IRAK4/HPK1 Ratio” value on HPK1 is recorded as “B (B=10 to 50)”.

Take `Cc1noc(-c2cnc(Nc3ccc4c(c3)C(C)(C)OC4=O)nc2NCc2ccccc2C(C)(C)O)n1` [Example 72, 5-{[4-({[2-(2-hydroxypropan-2-yl)phenyl]methyl}amino)-5-(3-methyl-1,2,4-oxadiazol-5-yl)pyrimidin-2-yl]amino}-3,3-dimethyl-1,3-dihydro-2-benzofuran-1-one]: the IC50 on HPK1 (setting [1]) fell in the range of 50 to 250 nM; against IRAK4 it was 250 to 1000 nM. Besides, the “IRAK4/HPK1 Ratio” value on HPK1 is “B (B=10 to 50)”.

As to `CC(C)(O)c1ccccc1CNc1nc(Nc2ccc3c(c2)C(C)(C)OC3=O)ncc1-c1nc(C2CC2)no1` [Example 73, 5-{[5-(3-cyclopropyl-1,2,4-oxadiazol-5-yl)-4-({[2-(2-hydroxypropan-2-yl)phenyl]methyl}amino)pyrimidin-2-yl]amino}-3,3-dimethyl-1,3-dihydro-2-benzofuran-1-one], the values for the IC50 on HPK1 (setting [1]) and against IRAK4 were 50 to 250 nM and 250 to 1000 nM, respectively. For the same compound, on HPK1, the “IRAK4/HPK1 Ratio” value is “B (B=10 to 50)”.

In the case of `Cc1noc(-c2cnc(Nc3ccc4c(c3)C(C)(C)OC4=O)nc2Nc2ccc3[nH]ncc3c2)n1` [Example 74, 5-({4-[(1H-indazol-5-yl)amino]-5-(3-methyl-1,2,4-oxadiazol-5-yl)pyrimidin-2-yl}amino)-3,3-dimethyl-1,3-dihydro-2-benzofuran-1-one], the values for the IC50 at HPK1 (setting [1]) and on IRAK4 were 50 to 250 nM and 250 to 1000 nM, respectively. In addition, the “IRAK4/HPK1 Ratio” value at HPK1 was “B (B=10 to 50)”.

For the compound `CC1(C)OC(=O)c2ccc(Nc3ncc(-c4nc(C5CC5)no4)c(Nc4ccc5[nH]ncc5c4)n3)cc21` [Example 75, 5-{[5-(3-cyclopropyl-1,2,4-oxadiazol-5-yl)-4-[(1H-indazol-5-yl)amino]pyrimidin-2-yl]amino}-3,3-dimethyl-1,3-dihydro-2-benzofuran-1-one], the half-inhibitory concentration (IC50) fell in the range of 50 to 250 nM at HPK1 (setting [1]) and 250 to 1000 nM on IRAK4. Further, on HPK1, the “IRAK4/HPK1 Ratio” value is given as “B (B=10 to 50)”.

Turning to `CCOC(=O)c1cnc(Nc2ccc3c(c2)C(C)(C)OC3=O)nc1NCCC(C)(C)N` [Example 76, Ethyl 4-[(3-amino-3-methylbutyl)amino]-2-[(3,3-dimethyl-1-oxo-1,3-dihydro-2-benzofuran-5-yl)amino]pyrimidine-5-carboxylate], the IC50 at HPK1 (setting [1]) was 50 to 250 nM; on IRAK4, 250 to 1000 nM. Moreover, at HPK1, the “IRAK4/HPK1 Ratio” value is “B (B=10 to 50)”.

With `CC(C)(CN)CNc1nc(Nc2ccc3c(c2)C(C)(C)OC3=O)ncc1-c1nc(C2CCOCC2)no1` [Example 77, 5-({4-[(3-amino-2,2-dimethylpropyl)amino]-5-[3-(oxan-4-yl)-1,2,4-oxadiazol-5-yl]pyrimidin-2-yl}amino)-3,3-dimethyl-1,3-dihydro-2-benzofuran-1-one], the IC50 is below 50 nM on HPK1 (setting [1]) and 250 to 1000 nM against IRAK4. The “IRAK4/HPK1 Ratio” value on HPK1 is “C (C=>50)”.

For `CC1(C)OC(=O)c2ccc(Nc3cc(N[C@H](CO)c4ccccc4)c(-c4nc(C5CC5)no4)cn3)cc21` [Example 78, 5-{[5-(3-cyclopropyl-1,2,4-oxadiazol-5-yl)-4-{[(1S)-2-hydroxy-1-phenylethyl]amino}pyridin-2-yl]amino}-3,3-dimethyl-1,3-dihydro-2-benzofuran-1-one], the IC50 on HPK1 (setting [1]) is 50 to 250 nM; at IRAK4, 250 to 1000 nM. For the same compound, on HPK1, the “IRAK4/HPK1 Ratio” value is “B (B=10 to 50)”.

Take `CC1(C)OC(=O)c2ccc(Nc3cc(N[C@H](CO)C4CC4)c(-c4nc(C5CC5)no4)cn3)cc21` [Example 79, 5-{[5-(3-cyclopropyl-1,2,4-oxadiazol-5-yl)-4-{[(1S)-1-cyclopropyl-2-hydroxyethyl]amino}pyridin-2-yl]amino}-3,3-dimethyl-1,3-dihydro-2-benzofuran-1-one]: the results for the IC50 at HPK1 (setting [1]) and against IRAK4 were 50 to 250 nM and 250 to 1000 nM, respectively. Moreover, the “IRAK4/HPK1 Ratio” value at HPK1 is on record as “B (B=10 to 50)”.

Take `CC1(C)OC(=O)c2ccc(Nc3cc(N[C@H](CO)c4ccccc4)c(-c4nc(C56CCN(CC5)CC6)no4)cn3)nc21` [Example 81, 2-{[5-(3-{1-azabicyclo[2.2.2]octan-4-yl}-1,2,4-oxadiazol-5-yl)-4-{[(1S)-2-hydroxy-1-phenylethyl]amino}pyridin-2-yl]amino}-7,7-dimethyl-5H,7H-furo[3,4-b]pyridin-5-one]: on HPK1, the IC50 is below 50 nM and the “IRAK4/HPK1 Ratio” value was “C (C=>50)”. This compound came in with an IC50 against IRAK4 of 50 to 250 nM.

Regarding `CC1(C)OC(=O)c2ccc(Nc3cc(N[C@H](CO)c4ccc(F)cc4)c(-c4nc(C56CCN(CC5)CC6)no4)cn3)nc21` [Example 82, 2-{[5-(3-{1-azabicyclo[2.2.2]octan-4-yl}-1,2,4-oxadiazol-5-yl)-4-{1[(1S)-1-(4-fluorophenyl)-2-hydroxyethyl]amino}pyridin-2-yl]amino}-7,7-dimethyl-5H,7H-furo [3,4-b]pyridin-5-one], on HPK1, the IC50 was below 50 nM and the “IRAK4/HPK1 Ratio” value is on record as “C (C=>50)”. The compound also returned an IC50 against IRAK4 of 50 to 250 nM.

Turning to `CC1(C)OC(=O)c2ccc(Nc3cc(N[C@H](CO)c4ccccc4)c(-c4nc(C5CN6CCC5(F)CC6)no4)cn3)nc21` (stereo partly drawn) [Example 83, 2-{[5-(3-{4-fluoro-1-azabicyclo[2.2.2]octan-3-yl}-1,2,4-oxadiazol-5-yl)-4-{[(1S)-2-hydroxy-1-phenylethyl]amino}pyridin-2-yl]amino}-7,7-dimethyl-5H,7H-furo [3,4-b]pyridin-5-one], on HPK1, the half-maximal inhibitory concentration (IC50) is below 50 nM and the “IRAK4/HPK1 Ratio” value was “C (C=>50)”. The compound also registered an IC50 at IRAK4 of 50 to 250 nM.

Consider `CC1(C)OC(=O)c2ccc(Nc3cc(NCc4nccs4)c(-c4nc(C56CCN(CC5)CC6)no4)cn3)nc21` [Example 84, 2-{[5-(3-{1-azabicyclo[2.2.2]octan-4-yl}-1,2,4-oxadiazol-5-yl)-4-{[(1,3-thiazol-2-yl)methyl]amino}pyridin-2-yl]amino}-7,7-dimethyl-5H,7H-furo[3,4-b]pyridin-5-one], for which the IC50 is below 50 nM at HPK1 (setting [1]) and 250 to 1000 nM at IRAK4. The “IRAK4/HPK1 Ratio” value on HPK1 is “C (C=>50)”.
